Measurements: ChEMBL document CHEMBL1201861, “Genomics of Drug Sensitity in Cancer screening data, Wellcome Trust Sanger Institute”

How the values were obtained:
Experiment in all cases: cells
GCT = assay type: functional, cell-based; settings: Homo sapiens;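 further: GCT cell line proliferation inhibition, read out with a cell viability assay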
Description: SANGER: Inhibition of human GCT cell growth in a cell viability assay.

MDA-MB-157 = assay type: functional, cell-based; settings: Homo sapiens
Description: SANGER: Inhibition of human MDA-MB-157 cell growth in a cell viability assay.

UMUC3 = assay type: functional, cell-based; settings: Homo sapiens;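 further: growth inhibition of human UM-UC-3 cells, read out with a cell viability assay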
Description: SANGER: Inhibition of human UM-UC-3 cell growth in a cell viability assay.

RO82-W-1 = assay type: functional, cell-based; settings: Homo sapiens;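 further: growth inhibition of human RO82-W-1 cells, measured with a cell viability assay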
Description: SANGER: Inhibition of human RO82-W-1 cell growth in a cell viability assay.

FaDu = assay type: functional, cell-based; settings: Homo sapiens;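 further: cell viability readout of growth inhibition in FaDu cells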
Description: SANGER: Inhibition of human FADU cell growth in a cell viability assay.

NCI-H1573 = assay type: functional, cell-based; settings: Homo sapiens;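 further: growth inhibition of NCI-H1573 cells, read out with a cell viability assay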
Description: SANGER: Inhibition of human NCI-H1573 cell growth in a cell viability assay.

SK-MES-1 = assay type: functional, cell-based; settings: Homo sapiens;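 further: growth inhibition of human SK-MES-1 cells, read out with a cell viability assay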
Description: SANGER: Inhibition of human SK-MES-1 cell growth in a cell viability assay.

COR-L105 = assay type: functional, cell-based; settings: Homo sapiens;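 further: cell growth inhibition determined with a viability assay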
Description: SANGER: Inhibition of human COR-L105 cell growth in a cell viability assay.

A204 = assay type: functional, cell-based; settings: Homo sapiens;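 further: growth inhibition of human A204 cells, read out with a cell viability assay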
Description: SANGER: Inhibition of human A204 cell growth in a cell viability assay.

Panc1005 = assay type: functional, cell-based; settings: Homo sapiens;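 further: growth inhibition of human PANC-10-05 cells, measured by a cell viability assay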
Description: SANGER: Inhibition of human PANC-10-05 cell growth in a cell viability assay.

SCC-25 = assay type: functional, cell-based; settings: Homo sapiens;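 further: growth inhibition of SCC-25 cells, measured with a cell viability assay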
Description: SANGER: Inhibition of human SCC-25 cell growth in a cell viability assay.

PANC-08-13 = assay type: functional, cell-based; settings: Homo sapiens;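 further: cell growth inhibition, measured with a cell viability assay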
Description: SANGER: Inhibition of human PANC-08-13 cell growth in a cell viability assay.

LoVo = assay type: functional, cell-based; settings: Homo sapiens;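 further: growth inhibition of human LoVo cells, read out with a cell viability assay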
Description: SANGER: Inhibition of human LoVo cell growth in a cell viability assay.

CWR22R = assay type: functional, cell-based; settings: Homo sapiens, 22Rv1;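 further: growth inhibition of 22Rv1 cells, read out with a cell viability assay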
Description: SANGER: Inhibition of human 22RV1 cell growth in a cell viability assay.

HT1197 = assay type: functional, cell-based, HT-1197; settings: Homo sapiens
Description: SANGER: Inhibition of human HT-1197 cell growth in a cell viability assay.

LCLC-97TM1 = assay type: functional, cell-based; settings: Homo sapiens;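 further: cell viability assay measuring growth inhibition of human LCLC-97TM1 cells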
Description: SANGER: Inhibition of human LCLC-97TM1 cell growth in a cell viability assay.

OE33 = assay type: functional, cell-based; settings: Homo sapiens;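 further: growth inhibition of human OE33 cells, measured by a cell viability assay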
Description: SANGER: Inhibition of human OE33 cell growth in a cell viability assay.

COLO-741 = assay type: functional, cell-based; settings: Homo sapiens
Description: SANGER: Inhibition of human COLO-741 cell growth in a cell viability assay.

NCI-H1563 = assay type: functional, cell-based; settings: Homo sapiens;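 further: growth inhibition of human NCI-H1563 cells, read out with a cell viability assay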
Description: SANGER: Inhibition of human NCI-H1563 cell growth in a cell viability assay.

Ca9-22 = assay type: functional, cell-based; settings: Homo sapiens;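 further: growth inhibition of Ca9-22 cells, read out with a cell viability assay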
Description: SANGER: Inhibition of human Ca9-22 cell growth in a cell viability assay.

CAL-27 = assay type: functional, cell-based; settings: Homo sapiens;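 further: Viability-based readout, IC50 reflecting inhibition of CAL-27 cell growth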
Description: SANGER: Inhibition of human CAL-27 cell growth in a cell viability assay.

NB14 = assay type: functional, cell-based; settings: Homo sapiens;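 further: growth inhibition of NB14 cells measured with a cell viability assay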
Description: SANGER: Inhibition of human NB14 cell growth in a cell viability assay.

UMC-11 = assay type: functional, cell-based; settings: Homo sapiens;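 further: growth inhibition of UMC-11 cells, read out with a cell viability assay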
Description: SANGER: Inhibition of human UMC-11 cell growth in a cell viability assay.

T-24 = assay type: functional, cell-based; settings: Homo sapiens;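 further: growth inhibition of T-24 cells, read out with a cell viability assay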
Description: SANGER: Inhibition of human T-24 cell growth in a cell viability assay.

HCC1395 = assay type: functional, cell-based; settings: Homo sapiens;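 further: growth inhibition of HCC1395 cells, read out by a cell viability assay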
Description: SANGER: Inhibition of human HCC1395 cell growth in a cell viability assay.

GAMG = assay type: functional, cell-based; settings: Homo sapiens;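 further: cell growth inhibition measured by a viability assay in the GAMG human cell line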
Description: SANGER: Inhibition of human GAMG cell growth in a cell viability assay.

KYSE-180 = assay type: functional, cell-based; settings: Homo sapiens;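 further: growth inhibition of KYSE-180 cells, read out with a cell viability assay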
Description: SANGER: Inhibition of human KYSE-180 cell growth in a cell viability assay.

MKN-7 = assay type: functional, cell-based; settings: Homo sapiens;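 further: growth inhibition of MKN-7 cells, read out with a cell viability assay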
Description: SANGER: Inhibition of human MKN7 cell growth in a cell viability assay.

BFTC-905 = assay type: functional, cell-based; settings: Homo sapiens
Description: SANGER: Inhibition of human BFTC-905 cell growth in a cell viability assay.

NCI-H2228 = assay type: functional, cell-based; settings: Homo sapiens;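 further: growth inhibition of human NCI-H2228 cells, read out by a cell viability assay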
Description: SANGER: Inhibition of human NCI-H2228 cell growth in a cell viability assay.

HCC1937 = assay type: functional, cell-based; settings: Homo sapiens;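 further: growth inhibition measured with a cell viability read-out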
Description: SANGER: Inhibition of human HCC1937 cell growth in a cell viability assay.

MeWo = assay type: functional, cell-based; settings: Homo sapiens;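 further: growth inhibition of MeWo cells, determined by a cell viability readout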
Description: SANGER: Inhibition of human Mewo cell growth in a cell viability assay.

ChaGo-K-1 = assay type: functional, cell-based; settings: Homo sapiens;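 further: growth inhibition of ChaGo-K-1 cells, read out with a cell viability assay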
Description: SANGER: Inhibition of human ChaGo-K-1 cell growth in a cell viability assay.

MOLT-13 = assay type: functional, cell-based; settings: Homo sapiens;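 further: IC50 for suppression of MOLT-13 cell growth, read out with a cell viability assay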
Description: SANGER: Inhibition of human MOLT-13 cell growth in a cell viability assay.

FTC-133 = assay type: functional, cell-based; settings: Homo sapiens
BPH-1 = assay type: functional, cell-based; settings: Homo sapiens;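 further: cell viability assay measuring growth inhibition of human BPH-1 cells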
Description: SANGER: Inhibition of human BPH-1 cell growth in a cell viability assay.

Capan-2 = assay type: functional, cell-based; settings: Homo sapiens;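 further: Capan-2 cell growth inhibition, read out with a viability assay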
Description: SANGER: Inhibition of human Capan-2 cell growth in a cell viability assay.

ABC-1 = assay type: functional, cell-based; settings: Homo sapiens;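 further: growth inhibition of human ABC-1 cells, read out by a cell viability assay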
Description: SANGER: Inhibition of human ABC-1 cell growth in a cell viability assay.

DBTRG-05MG = assay type: functional, cell-based; settings: Homo sapiens;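 further: cell viability assay measuring growth inhibition of human DBTRG-05MG cells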
Description: SANGER: Inhibition of human DBTRG-05MG cell growth in a cell viability assay.

HT-1080 = assay type: functional, cell-based; settings: Homo sapiens
Description: SANGER: Inhibition of human HT-1080 cell growth in a cell viability assay.

MKN-45 = assay type: functional, cell-based; settings: Homo sapiens;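 further: growth inhibition of human MKN-45 cells, measured with a cell viability assay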
Description: SANGER: Inhibition of human MKN45 cell growth in a cell viability assay.

NB12 = assay type: functional, cell-based; settings: Homo sapiens;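 further: growth inhibition of human NB12 cells, read out by a cell viability assay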
Description: SANGER: Inhibition of human NB12 cell growth in a cell viability assay.

NCI-H520 = assay type: functional, cell-based; settings: Homo sapiens;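 further: growth inhibition of NCI-H520 cells, measured by a cell viability assay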
Description: SANGER: Inhibition of human NCI-H520 cell growth in a cell viability assay.

SW1783 = assay type: functional, cell-based; settings: Homo sapiens;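 further: cell growth inhibition measured with a viability assay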
Description: SANGER: Inhibition of human SW1783 cell growth in a cell viability assay.

OE19 = assay type: functional, cell-based; settings: Homo sapiens;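 further: growth inhibition of OE19 cells, measured through a cell viability read-out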
Description: SANGER: Inhibition of human OE19 cell growth in a cell viability assay.

HCC1806 = assay type: functional, cell-based; settings: Homo sapiens;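 further: growth inhibition of the cancer cell line, determined with a cell viability assay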
Description: SANGER: Inhibition of human HCC1806 cell growth in a cell viability assay.

LCLC-103H cell line = assay type: functional, cell-based; settings: Homo sapiens
Description: SANGER: Inhibition of human LCLC-103H cell growth in a cell viability assay.

HGC-27 = assay type: functional, cell-based; settings: Homo sapiens;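 further: growth inhibition of human HGC-27 cells, read out in a cell viability assay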
Description: SANGER: Inhibition of human HGC-27 cell growth in a cell viability assay.

Hs-578T = assay type: functional, cell-based; settings: Homo sapiens
Description: SANGER: Inhibition of human Hs-578-T cell growth in a cell viability assay.

KYSE-70 cell line = assay type: functional, cell-based; settings: Homo sapiens;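 further: cell viability assay read-out, with IC50 expressing suppression of KYSE-70 cell growth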
Description: SANGER: Inhibition of human KYSE-70 cell growth in a cell viability assay.

D-336MG = assay type: functional, cell-based; settings: Homo sapiens
Description: SANGER: Inhibition of human D-336MG cell growth in a cell viability assay.

UACC-62 = assay type: functional, cell-based; settings: Homo sapiens;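 further: growth inhibition of human UACC-62 cells, read out by a cell viability assay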
Description: SANGER: Inhibition of human UACC-62 cell growth in a cell viability assay.

NY = assay type: functional, cell-based; settings: Homo sapiens
Description: SANGER: Inhibition of human NY cell growth in a cell viability assay.

MHH-ES-1 = assay type: functional, cell-based; settings: Homo sapiens;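 further: cell growth inhibition measured by a cell viability assay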
Description: SANGER: Inhibition of human MHH-ES-1 cell growth in a cell viability assay.

With `COc1cc(Nc2c(C#N)cnc3cc(OCCCN4CCN(C)CC4)c(OC)cc23)c(Cl)cc1Cl` [BOSUTINIB] the IC50 (GCT) was > 2 µM, the IC50 (MDA-MB-157) was > 2 µM and the IC50 (UMUC3) was > 2 µM. For the same molecule, the IC50 (RO82-W-1) was > 2 µM, the IC50 (FaDu) was > 2 µM and the IC50 (NCI-H1573) was > 2 µM. The IC50 (SK-MES-1) was > 2 µM, the IC50 (COR-L105) was 1 µM and the IC50 (A204) was > 2 µM. For the same molecule, the IC50 (Panc1005) was > 2 µM, the IC50 (SCC-25) was > 2 µM and the IC50 (PANC-08-13) was > 2 µM. For the same molecule, the IC50 (LoVo) was 1.98 µM, the IC50 (CWR22R) was > 2 µM and the IC50 (HT1197) was > 2 µM. For the same molecule, the IC50 (LCLC-97TM1) was > 2 µM, the IC50 (OE33) was > 2 µM and the IC50 (COLO-741) was > 2 µM. The IC50 (NCI-H1563) was > 2 µM, the IC50 (Ca9-22) was 1.56 µM and the IC50 (CAL-27) was 0.929 µM. The IC50 (NB14) was > 2 µM, the IC50 (UMC-11) was > 2 µM and the IC50 (T-24) was > 2 µM. The IC50 (HCC1395) was > 2 µM, the IC50 (GAMG) was > 2 µM and the IC50 (KYSE-180) was > 2 µM. For the same molecule, the IC50 (MKN-7) was > 2 µM, the IC50 (BFTC-905) was > 2 µM and the IC50 (NCI-H2228) was > 2 µM. The IC50 (HCC1937) was > 2 µM, the IC50 (MeWo) was > 2 µM and the IC50 (ChaGo-K-1) was > 2 µM. For the same molecule, the IC50 (MOLT-13) was > 2 µM, the IC50 (FTC-133) was > 2 µM and the IC50 (BPH-1) was 1.45 µM. The IC50 (Capan-2) was > 2 µM, the IC50 (ABC-1) was > 2 µM and the IC50 (DBTRG-05MG) was > 2 µM. The IC50 (HT-1080) was 0.553 µM, the IC50 (MKN-45) was > 2 µM and the IC50 (NB12) was > 2 µM. The IC50 (NCI-H520) was > 2 µM, the IC50 (SW1783) was > 2 µM and the IC50 (OE19) was > 2 µM. For the same molecule, the IC50 (HCC1806) was 0.352 µM, the IC50 (LCLC-103H cell line) was > 2 µM and the IC50 (HGC-27) was > 2 µM. The IC50 (Hs-578T) was > 2 µM, the IC50 (KYSE-70 cell line) was > 2 µM and the IC50 (D-336MG) was > 2 µM. The IC50 (UACC-62) was > 2 µM, the IC50 (NY) was > 2 µM and the IC50 (MHH-ES-1) was > 2 µM.
